Experiment in all cases: growth of human tumour cells (NCI), 48 h
Assay [1] concerns SF-295 CNS.
Assay [2] relates to SK-MEL-2 melanoma.
In assay [3] the test system is 786-0 renal.
The test system of assay [4] is SW-620 colon.
Assay [5] has as its system HS 578T breast.
Assay [6] relates to SNB-75 CNS.
Assay [7] concerns HCC-2998 colon.
For assay [8], the system named is PC-3 prostate.
Assay [9] has as its system HCT-116 colon.
Assay [10] deals with COLO 205 colon.
Assay [11] has as its system CAKI-1 renal.
Assay [12] has as its system OVCAR-4 ovarian.
Assay [13] concerns NCI-H460 lung.
In assay [14] the test system is LOX IMVI melanoma.
Assay [15] deals with MDA-MB-435.
Assay [16] concerns HT29 colon.
Assay [17] relates to RPMI-8226 leukemia.

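A five-concentration, 48-hour dose response in 96-well plates underlies each endpoint, interpolated linearly between surrounding concentrations. Definition used: TGI = concentration required for complete inhibition of growth.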

For the molecule `C=C1[C@H](OCC(C)C)[C@@H](OCC(C)C)[C@@H](O)C(C)(C)/C=C/[C@H](C)C(=O)[C@@]2(O)C[C@H](C)[C@H](O)[C@@H]2[C@H]1OCC(C)C`, the TGI in assay [1], in [2], in [3], in assay [4], in assay [5] and in [6] was greater than 7.5 µM each time. Besides, the TGI in assay [7], in assay [8], in [9], in assay [10], in [11] and in [12] was greater than 7.5 µM in each case. Also, the TGI in assay [13], in assay [14] and in assay [15] was greater than 7.5 µM in each case.
As for `Cn1c(=S)[nH]c2c(Cl)cc(Cl)cc2c1=O`, the TGI in [1], in assay [2], in assay [3], in [4], in assay [5] and in [6] was greater than 100 µM throughout. Further, the TGI in assay [7], in assay [8], in assay [9], in assay [10], in assay [11] and in assay [12] was greater than 100 µM each time. Also, the TGI in [13], in assay [14] and in [15] was greater than 100 µM throughout.
As to `CC(C(O)c1ccccc1)N(C)/N=N/c1nc2c([nH]1)c(=O)n(C)c(=O)n2C` (centres undefined), the TGI in assay [1], in assay [2], in assay [3], in [4], in assay [5] and in assay [6] was greater than 100 µM each time. Moreover, the TGI in assay [7], in [8], in assay [16], in assay [9], in assay [10] and in assay [11] was greater than 100 µM throughout. In addition, the TGI in assay [12], in [13], in [15] and in [17] was greater than 100 µM in each case.
Take `Cc1nc2c(n1CCCl)C(=O)c1ccccc1C2=O`: the TGI is 62.6 µM in [1]; greater than 100 µM in assay [3]; 88.9 µM in [4]; greater than 100 µM in [5]; greater than 100 µM in assay [6]; 67.5 µM in assay [7]. The TGI stood at 46.1 µM in assay [8]; 44.7 µM in [16]; 36.6 µM in assay [9]; 30.2 µM in [10]; 29.7 µM in assay [12]; 65.9 µM in assay [13]. Besides, the TGI in [15] was 28.6 µM; in assay [17], greater than 100 µM.
For `Clc1cccc(Cl)c1C1SCc2nc3cc4ccccc4cc3n21` (centres undefined), the TGI in [1], in assay [2], in [3], in assay [4], in assay [5] and in [6] was greater than 100 µM throughout. For the same molecule, the TGI in [7], in assay [8], in [16], in assay [9], in assay [10] and in [11] was greater than 100 µM each time. Further, the TGI in assay [12], in assay [13], in assay [15] and in [17] was greater than 100 µM each time.
In the case of `CCn1cc(C(=O)O)c(=O)c2cc(F)c(N3CCN(Cn4c(O)c(N=NC(=O)c5ccncc5)c5cc(Cl)ccc54)CC3)cc21`, the TGI in assay [1] was greater than 100 µM; in assay [2], 60.9 µM; in [3], greater than 100 µM; in assay [4] it was greater than 100 µM; in [5], greater than 100 µM; in assay [6], 70.1 µM. Also, the TGI in assay [7] was greater than 100 µM; in assay [8] it was greater than 100 µM; in [16], greater than 100 µM; in assay [9], greater than 100 µM; in assay [10], greater than 100 µM; in assay [11], 72.8 µM. The TGI in assay [12], in assay [13], in [14] and in assay [15] was greater than 100 µM each time.
As to `CCCN(CCC)C(=S)N/N=C/c1cccc(C)n1`, the TGI in assay [1] was 7.53 µM; in assay [2] it was 26.4 µM; in [3] it was 1.37 µM; in assay [4], greater than 100 µM; in assay [5], greater than 100 µM; in assay [6] it was 0.991 µM. The TGI is 62.9 µM in assay [8]; greater than 100 µM in [16]; 0.196 µM in assay [9]; 0.0435 µM in assay [10]; 4.65 µM in assay [11]; 3.21 µM in assay [12]. The TGI is 0.748 µM in assay [13], 15.6 µM in assay [14], 28.8 µM in assay [15] and 0.546 µM in assay [17].
With `Cc1cc(Cl)ccc1NC(=O)/C(CC(=O)CC(c1ccccc1)c1c(O)c2ccccc2oc1=O)=N\O` (centres undefined), the TGI in [1], in [2], in assay [3], in assay [4], in [5] and in assay [6] was greater than 100 µM each time. Moreover, the TGI in assay [7], in [8], in assay [16], in [9], in assay [10] and in assay [11] was greater than 100 µM each time. In addition, the TGI in assay [12], in assay [13], in assay [14] and in [15] was greater than 100 µM in each case.
Take `c1ccc2c(OCC3CO3)ccc(OCC3CO3)c2c1` (centres undefined): the TGI in [1] worked out at 14.1 µM; in [3], 5.57 µM; in assay [4] it was 4.03 µM; in assay [5], 9.73 µM; in assay [6] it was 28.4 µM; in assay [7], 24.1 µM. Also, the TGI in [8] came to 17.1 µM; in assay [16] it was 17.5 µM; in [9], 2.76 µM; in [10], 23 µM; in assay [11], 3.32 µM; in assay [12], 21 µM. For the same molecule, the TGI in [13] was 12.5 µM; in assay [14], 2.08 µM; in assay [15] it was 7.74 µM; in assay [17] it was 9.44 µM.
In the case of `O=C1CC(n2cccc2)c2cc(Br)sc21` (centres undefined), the TGI in assay [1], in [2], in assay [3], in [4], in assay [5] and in assay [6] was greater than 100 µM throughout. Further, the TGI in assay [8], in assay [16], in assay [9], in [10], in assay [11] and in assay [12] was greater than 100 µM in each case. Besides, the TGI was greater than 100 µM in [13], greater than 100 µM in assay [14], greater than 100 µM in [15] and 69.9 µM in assay [17].
With `CCCOc1ccc(/C=C/C2=[N+](CCO)CCO2)cc1`, the TGI in [1], in assay [2], in assay [3], in [4], in [5] and in assay [6] was greater than 100 µM throughout. Moreover, the TGI in [7], in [8], in assay [16], in [9], in assay [10] and in assay [11] was greater than 100 µM each time. Also, the TGI in assay [12], in assay [13], in assay [15] and in [17] was greater than 100 µM throughout.
Turning to `COc1ccc(OC)c2c(=O)cc(-c3ccccc3)[nH]c12`, the TGI in assay [1], in [2], in assay [3], in [4], in assay [5] and in assay [6] was greater than 100 µM in each case. In addition, the TGI in [7], in assay [8], in [16], in [9], in assay [10] and in [12] was greater than 100 µM in each case. The TGI in assay [13], in assay [14], in assay [15] and in assay [17] was greater than 100 µM each time.
In the case of `COc1ccccc1NC(=S)Nc1cccc(C)n1`, the TGI is greater than 100 µM in [1]; greater than 100 µM in assay [2]; greater than 100 µM in assay [3]; greater than 100 µM in [4]; greater than 100 µM in assay [5]; 63.5 µM in assay [6]. In addition, the TGI in assay [8], in assay [16], in assay [9], in assay [10], in [11] and in assay [12] was greater than 100 µM each time. Also, the TGI in assay [13], in [14], in assay [15] and in assay [17] was greater than 100 µM in each case.

These data come from PubChem BioAssay (NCI).
